Results reported in patent US11655207B2, “Pharmaceutically acceptable salt of alkylcarbamoyl naphthalenyloxy octenoylhydroxy amide or of derivative thereof and method for preparing same” (CRYSTALGENOMICS, INC., priority 2017, dated 2023).
Values after ≈ are worked out from the molar mass of the structure shown. Like-named read-outs stand apart in the source and are kept apart here. One block for each compound: values may come before it.

How the values were obtained:
[1] = Change in appearance of the salts at room temperature for 24 hours; type: physicochemical; settings: for Initial appearance: dried material; for Appearance (stored at R.T. for 24 hrs) / change in appearance (text summary of Table 4): room temperature, 24 hours
Protocol: In the case of the suspension and the gel, firstly it was vacuum dried under reduced pressure and secondly vacuum dried for 24 to 48 hours.

[2] = Solubility of the compound of formula (1) in organic solvents (HPLC); type: physicochemical
[3] = Stability evaluation: change in moisture content; type: physicochemical; settings: open state, room temperature (20 to 25° C., 50% or less), 3 days vs initial; FIG. 2
Protocol: In order to evaluate the change in moisture content, the compounds according to Examples and Comparative Examples were stored in an open state at room temperature (20 to 25° C., 50% or less), and the change was measured by the difference between the initial moisture content and the moisture content after 3 days.

[4] = Stability evaluation: change in appearance under storage conditions; type: physicochemical
Description: In order to evaluate the change in appearance of the compounds according to Comparative Examples and Examples, it was observed after storing each compound in accordance with the conditions shown in Table 6 below.

[5] = Stability evaluation: change in the amount of related substances; type: physicochemical; settings: for change (increase) in the amount of related substances: open state, room temperature, 3 days, FIG. 3
[6] = 1 day, Acceleration (40±2° C. and 75±5% RH)
[7] = 1 day, Long-term (25±2° C. and 60±5% RH)
[8] = 1 day, Room temperature (20 to 25° C., 50% or less)

- Initial appearance [1]: Foam
- Appearance (stored at R.T. for 24 hrs) [1]: Gel-like
SMILES: CC(=O)O [Acetic acid]

- Initial appearance [1]: Foam
- Appearance (stored at R.T. for 24 hrs) [1]: Gel-like
SMILES: O=S(=O)(O)c1ccccc1 [Benzensulfonic acid]

SMILES: O=C(O)c1ccccc1 [Benzoic acid]
- Initial appearance [1]: Foam
- Appearance (stored at R.T. for 24 hrs) [1]: Gel-like

- Initial appearance [1]: Foam
- Appearance (stored at R.T. for 24 hrs) [1]: Gel-like
SMILES: O=C(O)CC(O)(CC(=O)O)C(=O)O [Citric acid]

SMILES: CN(C)CCCNC(=O)/C(=C/CCCCC(=O)NO)COc1cccc2ccccc12 [Comparative Example 1, alkylcarbamoyl naphthalenyloxy octenoyl hydroxyamide]
- Solubility ([2]; 1,4-dioxane, 20° C.): 72.3 mg/mL (≈ 169 mM)
- Solubility ([2]; 1,4-dioxane, 50° C.): 72.3 mg/mL (≈ 169 mM)
- Solubility ([2]; 1-butanol, 20° C.): >58.8 mg/mL
- Solubility ([2]; 2-propanol, 20° C.): 73.8 mg/mL (≈ 173 mM)
- Solubility ([2]; 2-propanol, 50° C.): 77.3 mg/mL (≈ 181 mM)
- Solubility ([2]; Acetone, 20° C.): 43.3 mg/mL (≈ 101 mM)
- Solubility ([2]; Acetone, 50° C.): 43.7 mg/mL (≈ 102 mM)
- Solubility ([2]; Acetonitrile, 20° C.): 6.1 mg/mL (≈ 14.3 mM)
- Solubility ([2]; Acetonitrile, 50° C.): 16.5 mg/mL (≈ 38.6 mM)
- Solubility ([2]; Butan-2-ol, 20° C.): 39.6 mg/mL (≈ 92.6 mM)
- Solubility ([2]; Butan-2-ol, 50° C.): 72.0 mg/mL (≈ 168 mM)
- Solubility ([2]; Chloroform, 20° C.): >80.7 mg/mL
- Solubility ([2]; Dimethyl sulfoxide, 20° C.): >70.6 mg/mL
- Solubility ([2]; Ethanol, 20° C.): >77.4 mg/mL
- Solubility ([2]; Ethyl acetate, 20° C.): 4.6 mg/mL (≈ 10.8 mM)
- Solubility ([2]; Ethyl acetate, 50° C.): 20.3 mg/mL (≈ 47.5 mM)
- Solubility ([2]; Methanol, 20° C.): >68.4 mg/mL
- Solubility ([2]; Methylene Ketone, 20° C.): 66.6 mg/mL (≈ 156 mM)
- Solubility ([2]; Methylene Ketone, 50° C.): 69.7 mg/mL (≈ 163 mM)
- Solubility ([2]; N,N-dimethylformamide, 20° C.): >76.6 mg/mL
- Solubility ([2]; Propanol, 20° C.): >70.3 mg/mL
- Solubility ([2]; Tert-butylmethyl ether, 20° C.): 0.8 mg/mL (≈ 1.87 mM)
- Solubility ([2]; Tert-butylmethyl ether, 50° C.): 0.8 mg/mL (≈ 1.87 mM)
- Solubility ([2]; Tetrahydrofuran, 20° C.): >74.0 mg/mL
- Solubility ([2]; Toluene, 20° C.): 1.0 mg/mL (≈ 2.34 mM)
- Solubility ([2]; Toluene, 50° C.): 3.3 mg/mL (≈ 7.72 mM)
- Initial appearance [1]: Foam
- Appearance (stored at R.T. for 24 hrs) [1]: Gel-like
- increase in moisture content [3]: about 3%
- Appearance [4, 6]: Gel-like
- Appearance [4, 7]: Gel-like
- Appearance [4, 8]: Gel-like
- Appearance ([4]; 1 day, Severe (60±2° C.)): Gel-like
- Appearance ([4]; Initial value): Foam
- change in appearance (Table 6) ([4]; storage conditions of Table 6): changed from initial foam such as a sponge to a highly viscous liquid or gel structure
- change (increase) in the amount of related substances [5]: about 10%

- Initial appearance [1]: Foam
- Appearance (stored at R.T. for 24 hrs) [1]: Gel-like
SMILES: CCS(=O)(=O)O [Ethanesulfonic acid]

SMILES: CN(C)CCCNC(=O)/C(=C/CCCCC(=O)NO)COc1cccc2ccccc12.O=C(O)C(O)C(O)C(=O)O [Example 1, Alkylcarbamoyl Naphthalenyloxy Octenoyl Hydroxyamide Tartaric Acid Salt]
- Initial appearance [1]: Powder
- Appearance (stored at R.T. for 24 hrs) [1]: Powder
- change in appearance (text summary of Table 4) [1]: no change in appearance was observed
- increase in moisture content [3]: 2%
- Appearance [4, 6]: Gel-like
- Appearance [4, 7]: Gel-like
- Appearance [4, 8]: Powder
- Appearance ([4]; 1 day, Severe (60±2° C.)): Powder
- Appearance ([4]; Initial value): Powder
- amount of formation of the related substances ([5]; according to temperature and storage period, FIGS. 4 and 5): maintained in a certain range at a relatively low temperature
- change (increase) in the amount of related substances [5]: 0.05%
- Content (bottle package, 1 day, Acceleration (40±2° C. and 75±5% RH)): 89.1
- Content (bottle package, 1 day, Long-term (25±2° C. and 60±5% RH)): 99.1
- Content (bottle package, 3 days, Acceleration (40±2° C. and 75±5% RH)): 84.0
- Content (bottle package, 3 days, Long-term (25±2° C. and 60±5% RH)): 84.1
- Content (bottle package, 7 days, Acceleration (40±2° C. and 75±5% RH)): 78.5
- Content (bottle package, 7 days, Long-term (25±2° C. and 60±5% RH)): 78.5
- change in content (text summary of Tables 7 and 8) (open state and bottle package, all storage conditions): maintained constant at room temperature regardless of the packaging state
- Content (open state, 1 day, Acceleration (40±2° C. and 75±5% RH)): 92.3
- Content (open state, 3 days, Severe (60±2° C.)): 97.2
- Content (open state, 7 days, Room temperature): 100.1
- Content (open state, 7 days, Severe (60±2° C.)): 89.1
- Content (open state, Initial value): 98.9
- Content (polyethylene bottle package (added silica gel), Initial value): 98.9

- Initial appearance [1]: Powder
- Appearance (stored at R.T. for 24 hrs) [1]: Gel-like
SMILES: O=C(O)/C=C/C(=O)O [Fumaric acid]

SMILES: CN(C)CCCNC(=O)/C(=C/CCCCC(=O)NO)COc1cccc2ccccc12.O=C(O)[C@H](O)[C@@H](O)[C@H](O)[C@H](O)CO [Gluconic acid, (D−)]
- Initial appearance [1]: Powder
- Appearance (stored at R.T. for 24 hrs) [1]: Gel-like

SMILES: O=C(O)CCCC(=O)O [Glutaric acid]
- Initial appearance [1]: Powder
- Appearance (stored at R.T. for 24 hrs) [1]: Gel-like

- Initial appearance [1]: Foam
- Appearance (stored at R.T. for 24 hrs) [1]: Gel-like
SMILES: O=C(O)CNC(=O)c1ccccc1 [Hippuric acid]

SMILES: Cl [Hydrochloric acid]
- Initial appearance [1]: Gel-like
- Appearance (stored at R.T. for 24 hrs) [1]: Gel-like

- Initial appearance [1]: Foam
- Appearance (stored at R.T. for 24 hrs) [1]: Gel-1ike
SMILES: O=C(O)/C=C\C(=O)O [Maleic acid]

- Initial appearance [1]: Foam
- Appearance (stored at R.T. for 24 hrs) [1]: Gel-like
SMILES: O=C(O)CC(=O)O [Malonic acid]

SMILES: CN(C)CCCNC(=O)/C(=C/CCCCC(=O)NO)COc1cccc2ccccc12.CS(=O)(=O)O [Methanensulfonic acid]
- Initial appearance [1]: Foam
- Appearance (stored at R.T. for 24 hrs) [1]: Gel-like

- Initial appearance [1]: Powder
- Appearance (stored at R.T. for 24 hrs) [1]: Gel-like
SMILES: O=S(=O)(O)c1ccc2ccccc2c1 [Naphthalene-2-sulfonic acid]

- Initial appearance [1]: Powder
- Appearance (stored at R.T. for 24 hrs) [1]: Gel-like
SMILES: O=C(O)c1ccc2ccccc2c1O [Naphthoic acid, 1-hydroxy-2]

- Initial appearance [1]: Powder
- Appearance (stored at R.T. for 24 hrs) [1]: Powder
- change in appearance (text summary of Table 4) [1]: no change in appearance was observed
SMILES: CCCCCCCCCCCCCCCCCC(=O)O [Stearic acid]

- Initial appearance [1]: Powder
- Appearance (stored at R.T. for 24 hrs) [1]: Gel-like
SMILES: O=C(O)CCC(=O)O [Succinic acid]

SMILES: O=S(=O)(O)O [Sulfuric acid]
- Initial appearance [1]: Gel-like
- Appearance (stored at R.T. for 24 hrs) [1]: Gel-like

SMILES: CN(C)CCCNC(=O)/C(=C/CCCCC(=O)NO)COc1cccc2ccccc12.Cc1ccc(S(=O)(=O)O)cc1 [Toluensulfonic acid, para]
- Initial appearance [1]: Foam
- Appearance (stored at R.T. for 24 hrs) [1]: Gel-like

SMILES: CN(C)CCCNC(=O)/C(=C/CCCCC(=O)NO)COc1cccc2ccccc12.O=C(O)C(F)(F)F [Trifluoracetic acid]
- Initial appearance [1]: Ge-1ike
- Appearance (stored at R.T. for 24 hrs) [1]: Gel-like
